Test results as given in patent publication US7723366B2 (Chugai Seiyaku Kabushiki Kaisha, priority 2001, dated 2010).

Tests used:
[1] = test system: muscle (M) isoform of CPT-I; details: read-out: IC50 of malonyl-CoA inhibition of CPT-I; cited from earlier work
[2] = test system: human breast cancer cells and xenografts; details: cited from earlier work
[3] = target: T1, malonyl-CoA decarboxylase prepared from rat heart (Rattus norvegicus, UniProt Q920F5); assay: In vitro MCD inhibitory assay (spectrophotometric, 96 well); assay type: biochemical; details: read-out: IC50 of the MCD inhibitors
T1 construct: from tissue; host or cells: rat heart
T1 sequence (Q920F5 39-492): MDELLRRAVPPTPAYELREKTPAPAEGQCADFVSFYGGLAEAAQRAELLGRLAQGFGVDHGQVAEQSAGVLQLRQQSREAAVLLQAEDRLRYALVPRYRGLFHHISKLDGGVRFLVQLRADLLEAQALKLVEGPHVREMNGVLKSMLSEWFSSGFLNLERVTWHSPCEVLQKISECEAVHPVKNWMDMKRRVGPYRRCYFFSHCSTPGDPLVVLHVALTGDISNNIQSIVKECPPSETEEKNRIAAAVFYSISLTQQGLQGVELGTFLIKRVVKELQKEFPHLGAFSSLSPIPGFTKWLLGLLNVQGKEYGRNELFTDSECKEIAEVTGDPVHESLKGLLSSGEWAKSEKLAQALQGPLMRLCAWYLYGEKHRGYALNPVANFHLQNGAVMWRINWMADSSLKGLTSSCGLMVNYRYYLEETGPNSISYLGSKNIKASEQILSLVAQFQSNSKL
Description: The following reagents are added into a 96 well titer plate: Tris-HCl buffer, 20 μL; DTE, 10 μL; I -malate, 20 μL; NAD, 10 μL; NADH, 25 μL; water, 80 μL; malic dehydrogenase, 5 μL. The contents are mixed and incubated for 2 min followed by the addition of 5 μL of citrate synthase. […] The content is incubated and absorbence at […] is measured.
Active compounds are characterized by the concentration of the compound that caused 50% inhibition of MCD activity (IC50).

[4] = test system: isolated working hearts from male Sprague-Dawley rats; assay: Glucose oxidation and fatty acid oxidation measurement in the perfused rat heart; details: compared with known metabolism modulators ranolazine or trimetazidine
Description: Isolated working hearts from male Sprague-Dawley rats are subjected to a 60-minute aerobic perfusion period with a modified Krebs-Henseleit solution containing 5 mmol/L glucose; 100 μU/mL insulin; 3% BAS; and 1.2 mmol/L palmitate. Working hearts are used in these studies to approximate the metabolic demand of the heart seen in vivo. (Kantor et al., Circulation Research 86:580-588(2000)). The test compound is added 5 minutes into the perfusion period.
Glucose oxidation rates are determined by the quantitative collection of ^14CO2 produced by hearts perfused with buffer containing […]. Rates of fatty acid oxidation are determined by the quantitative collection of ^14CO2 produced by hearts perfused with buffer containing [^14C]palmitate (McNeill, J. H. in “Measurement of cardiovascular function”, chapter 2, CRC press, New York (1997)).
Active compounds are characterized by an increase in glucose oxidation as compared to control experiment (DMSO). The compounds that caused statistically significant increases in glucose oxidation are considered to be active. The preferred compounds cause statistically significant increases in glucose oxidation at 20 μM. Statistical significance was calculated using the Student's t test for paired or unpaired samples, as appropriate. The results with P<0.05 are considered to be statistically significant.

Compound | IC50 [3] [nM] | further results
CC(C)(COP(=O)(O)OP(=O)(O)OC[C@H]1O[C@@H](n2cnc3c(N)ncnc32)[C@H](O)[C@@H]1OP(=O)(O)O)[C@@H](O)C(=O)NCCC(=O)NCCSC(=O)CC(=O)O [Malonyl-CoA] |  | IC50 [1]: 30 nM
CCCCCCCCCCCCCCOc1ccc(C(=O)O)o1 [TOFA, 5-(tetradecyloxy)-2-furoic acid] |  | malonyl-CoA level ([2]; breast carcinoma cells): 60 % of the control; antitumor activity [2]: does not show any antitumor activity
CCCCCCNc1ccc2nc(S)sc2c1 [Table 2; entry 1, 6-(hexylamino)-1,3-benzothiazole-2-thiol] | 535 | 
Sc1nc2ccc(NCc3ccccc3)cc2s1 [Table 2; entry 3, 6-[(phenylmethyl)amino]-1,3-benzothiazole-2-thiol] | 2620 | 
CCCCCCN(C(=O)Nc1cc(OC)cc(OC)c1)c1ccc2nc(S)sc2c1 [Table 3; entry 1, N′-[3,5-bis(methyloxy)phenyl]-N-hexyl-N-(2-mercapto-1,3-benzothiazol-6-yl)urea] | 65 | effects in metabolism shift compared with ranolazine or trimetazidine [4]: more profound effects in metabolism shift
CCN(C(=O)Nc1ccccc1)c1ccc2nc(S)sc2c1 [Table 3; entry 5] | 54 | effects in metabolism shift compared with ranolazine or trimetazidine [4]: more profound effects in metabolism shift
S=C(Nc1ccccc1)N(Cc1ccccc1)c1ccc2nc(S)sc2c1 [Table 3; entry 8] | 240 | 
O=C(COc1ccccc1)N(Cc1ccccc1)c1ccc2nc(S)sc2c1 [Table 4; entry 1, N-(2-mercapto-1,3-benzothiazol-6-yl)-N-(phenylmethyl)-2-(phenyloxy)acetamide] | 1020 | 
CCCN(C(=O)N(CC(C)C)CC(C)C)c1ccc2nc(S)sc2c1 [Table 5; entry 5] | 263 | 
O=S(=O)(c1ccc2sc(S)nc2c1)N1CCCCC1 [Table 7; entry 2] | 466 | 
CCOC(=O)c1csc(S)n1 [Table 8; entry 1, Ethyl 2-Mercapto-1,3-thiazole-4-carboxylate] |  | melting point: 120 to 121 °C
